Source: ChEMBL document CHEMBL3045169, “In vitro evaluation of the antibacterial and antifungal activity of some new pyrazolyl-quinazolin-4(3H)-one derivatives” (2012)

How the values were obtained:
Format in all cases: functional
Staphylococcus aureus [1] = test: Antibacterial activity against Staphylococcus aureus ATCC 9144 at 50 ug/ml by agar cup-plate method; details: read-out: IZ
Bacillus subtilis [2] = test: Antibacterial activity against Bacillus subtilis ATCC 6633 by agar cup plate method relative to penicillin-G; set-up: concentration or dose not given beside the values
Aspergillus niger [3] = test: Antifungal activity against Aspergillus niger ATCC 6275 at 10 ug/ml by agar cup-plate method; details: read-out: IZ
Aspergillus niger [4] = test: Antifungal activity against Aspergillus niger ATCC 6275 at 20 ug/ml by agar cup-plate method; details: read-out: IZ
Escherichia coli [5] = test: Antibacterial activity against Escherichia coli ATCC 25922 by agar cup-plate method relative to penicillin-G; set-up: concentration or dose not given beside the values
Candida albicans [6] = test: Antifungal activity against Candida albicans ATCC 10231 at 20 ug/ml by agar cup-plate method; details: read-out: IZ
Escherichia coli [7] = test: Antibacterial activity against Escherichia coli ATCC 25922 at 50 ug/ml by agar cup-plate method; details: read-out: IZ
Staphylococcus aureus [8] = test: Antibacterial activity against Staphylococcus aureus ATCC 9144 by agar cup-plate method relative to penicillin-G; set-up: concentration or dose not given beside the values
Candida albicans [9] = test: Antifungal activity against Candida albicans ATCC 10231 at 10 ug/ml by agar cup-plate method; details: read-out: IZ
Candida albicans [10] = test: Antifungal activity against Candida albicans ATCC 10231 by agar cup-plate method relative to fluconazole; set-up: concentration or dose not given beside the values
Bacillus subtilis [11] = test: Antibacterial activity against Bacillus subtilis ATCC 6633 at 100 ug/ml by agar cup plate method; details: read-out: IZ
Escherichia coli [12] = test: Antibacterial activity against Escherichia coli ATCC 25922 at 100 ug/ml by agar cup-plate method; details: read-out: IZ
Bacillus subtilis [13] = test: Antibacterial activity against Bacillus subtilis ATCC 6633 at 50 ug/ml by agar cup plate method; details: read-out: IZ
Pseudomonas aeruginosa [14] = test: Antibacterial activity against Pseudomonas aeruginosa ATCC 9027 at 100 ug/ml by agar cup-plate method; details: read-out: IZ
Pseudomonas aeruginosa [15] = test: Antibacterial activity against Pseudomonas aeruginosa ATCC 9027 by agar cup-plate method relative to penicillin-G; set-up: concentration or dose not given beside the values
Staphylococcus aureus [16] = test: Antibacterial activity against Staphylococcus aureus ATCC 9144 at 100 ug/ml by agar cup-plate method; details: read-out: IZ
Aspergillus niger [17] = test: Antifungal activity against Aspergillus niger ATCC 6275 by agar cup-plate method relative to fluconazole; set-up: concentration or dose not given beside the values
Pseudomonas aeruginosa [18] = test: Antibacterial activity against Pseudomonas aeruginosa ATCC 9027 at 50 ug/ml by agar cup-plate method; details: read-out: IZ

Work on `CN(C)c1ccc(C2CC(Nn3c(Cc4ccccc4Nc4ccccc4)nc4ccc(I)cc4c3=O)=NN2)cc1` (stereo not drawn) yielded a zone of inhibition at 50 µg/mL (Staphylococcus aureus [1]) of 0 mm, an Activity (Bacillus subtilis [2]) of 45.27% and a zone of inhibition at 10 µg/mL (Aspergillus niger [3]) of 14 mm. For the same compound, the zone of inhibition at 20 µg/mL (Aspergillus niger [4]) was 17 mm, the Activity (Escherichia coli [5]) was 40.81% and the zone of inhibition at 20 µg/mL (Candida albicans [6]) was 18 mm. It also gave a zone of inhibition at 50 µg/mL (Escherichia coli [7]) of 0 mm, an Activity (Staphylococcus aureus [8]) of 48.23% and a zone of inhibition at 10 µg/mL (Candida albicans [9]) of 15 mm. For the same compound, the Activity (Candida albicans [10]) was 68.81%, the zone of inhibition at 100 µg/mL (Bacillus subtilis [11]) was 7 mm and the zone of inhibition at 100 µg/mL (Escherichia coli [12]) was 6 mm. It also gave a zone of inhibition at 50 µg/mL (Bacillus subtilis [13]) of 0 mm, a zone of inhibition at 100 µg/mL (Pseudomonas aeruginosa [14]) of 7 mm and an Activity (Pseudomonas aeruginosa [15]) of 48.61%. The zone of inhibition at 100 µg/mL (Staphylococcus aureus [16]) was 7 mm, the Activity (Aspergillus niger [17]) was 60.1% and the zone of inhibition at 50 µg/mL (Pseudomonas aeruginosa [18]) was 0 mm.
